In ChEMBL document CHEMBL3632460, “Discovery of a Novel Series of Imidazo[1,2-a]pyrimidine Derivatives as Potent and Orally Bioavailable Lipoprotein-Associated Phospholipase A2 Inhibitors” (J Med Chem, 2015):
Active and inactive are the calls of the source. The calls are words filed in the database; no cut-off is given here.

Assays:
Rattus norvegicus [1] = species on record: Rattus norvegicus; conditions: Sprague-Dawley, 25 mg/kg
Description: In vivo inhibition of Lp-PLA2 in Sprague-Dawley rat at 25 mg/kg, po measured over 24 hrs

in vivo [2] = conditions: Sprague-Dawley, rat, po, 25 mg/kg
Description: AUC (0 to infinity) in Sprague-Dawley rat at 25 mg/kg, po after 48 hrs by LC-MS method

Rattus norvegicus [3] = experiment: In vivo inhibition of Lp-PLA2 in Sprague-Dawley rat at 25 mg/kg, po after 5 hrs; type: functional
[4] = target: T1, Platelet-activating factor acetylhydrolase (Mus musculus) (UniProt Q60963); conditions: Plasma, at 100 nM
T1 sequence (whole entry): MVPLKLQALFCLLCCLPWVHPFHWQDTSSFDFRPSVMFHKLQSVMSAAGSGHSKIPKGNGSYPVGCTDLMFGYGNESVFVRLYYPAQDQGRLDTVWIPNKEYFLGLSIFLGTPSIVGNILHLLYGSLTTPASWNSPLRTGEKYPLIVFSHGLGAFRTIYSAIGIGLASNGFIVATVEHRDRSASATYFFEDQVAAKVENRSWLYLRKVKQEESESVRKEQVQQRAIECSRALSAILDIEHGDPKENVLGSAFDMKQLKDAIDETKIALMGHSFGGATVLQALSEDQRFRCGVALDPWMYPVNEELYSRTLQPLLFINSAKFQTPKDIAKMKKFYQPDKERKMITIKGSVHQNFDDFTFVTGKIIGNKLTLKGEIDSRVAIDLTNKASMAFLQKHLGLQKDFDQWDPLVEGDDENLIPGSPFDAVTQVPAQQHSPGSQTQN

in vivo [5] = conditions: Sprague-Dawley, rat, po, 25 mg/kg; remark: listed apart in the source
Description: Terminal half life in Sprague-Dawley rat at 25 mg/kg, po after 48 hrs by LC-MS method

in vitro [6] = conditions: Wistar, rat, liver S9 fractions
[7] = target: T1, Platelet-activating factor acetylhydrolase (Mus musculus); conditions: Plasma, at 1 µM
Description: Inhibition of Lp-PLA2 in mouse plasma at 1 uM using 2-thio-PAF substrate after 10 mins

in vivo [8] = conditions: Sprague-Dawley, rat, po, 25 mg/kg; remark: listed apart in the source
Description: Cmax in Sprague-Dawley rat at 25 mg/kg, po after 48 hrs by LC-MS method

in vitro [9] = conditions: human, liver S9 fractions
Rattus norvegicus [10] = species on record: Rattus norvegicus; conditions: Sprague-Dawley, Plasma, 10 nM
Description: Inhibition of Lp-PLA2 in Sprague-Dawley rat plasma at 10 nM using 2-thio-PAF substrate after 10 mins

in vitro [11] = conditions: human, liver S9 fractions; remark: listed apart in the source
in vitro [12] = conditions: Wistar, rat, liver S9 fractions; remark: listed apart in the source
[13] = Terminal half life in Sprague-Dawley rat at 50 mg/kg, po after 48 hrs by LC-MS method; type: ADME, organism-based; conditions: in vivo, read-out: beta t1/2 (converted)
[14] = AUC (0 to infinity) in Sprague-Dawley rat at 50 mg/kg, po after 48 hrs by LC-MS method; type: ADME, organism-based; parameters: dose 50 mg/kg, route oral, time infinity; conditions: in vivo
[15] = Cmax in Sprague-Dawley rat at 50 mg/kg, po after 48 hrs by LC-MS method; type: ADME, organism-based; parameters: dose 50 mg/kg, route oral; conditions: in vivo

FC(F)(F)c1cc(Oc2ccc(COc3ccn4c(-c5cncnc5)cnc4n3)cc2)ccc1Cl
inhibition (Rattus norvegicus [1]): Active | AUC(0-inf) at 48 h (in vivo [2]): 88000 ng·h/mL | inhibition in vivo at 25 mg/kg (Rattus norvegicus [3]): 75% | inhibition [4]: 10% | half-life at 48 h (in vivo [5]): 566 min | half-life at 0.1 µM (in vitro [6]): 348 min | inhibition [7]: 56% | Cmax at 48 h (in vivo [8]): 3520 ng/mL | half-life at 0.1 µM (in vitro [9]): 116 min | inhibition (Rattus norvegicus [10]): 10%

N#Cc1cc(COc2ccn3c(-c4cncnc4)cnc3n2)ccc1Oc1ccc(Cl)c(C(F)(F)F)c1
AUC(0-inf) at 48 h (in vivo [2]): 16100 ng·h/mL | half-life at 48 h (in vivo [5]): 194 min | half-life at 0.1 µM (in vitro [6]): 40 min | inhibition [7]: 0% | Cmax at 48 h (in vivo [8]): 1400 ng/mL | half-life at 0.1 µM (in vitro [9]): 106 min | inhibition (Rattus norvegicus [10]): 14%

FC(F)(F)c1cc(Oc2ccc(CCOc3ccn4c(-c5cncnc5)cnc4n3)cc2)ccc1Cl
inhibition [4]: 2% | CLint scaled at 0.1 µM (in vitro [11]): 55.1 mL/min/kg | half-life at 0.1 µM (in vitro [6]): 110 min | inhibition [7]: 53% | half-life at 0.1 µM (in vitro [9]): 42 min | CLint scaled at 0.1 µM (in vitro [12]): 34.3 mL/min/kg

CCN(CC)CCN(Cc1ccc(-c2ccc(C(F)(F)F)cc2)cc1)C(=O)Cn1c(SCc2ccc(F)cc2)nc(=O)c2c1CCC2 [DARAPLADIB]
half-life [13]: 690 min | inhibition [4]: 96% | AUC(0-inf) [14]: 2110 ng·h/mL | inhibition [7]: 99% | Cmax [15]: 150 ng/mL

Cn1cc(-c2cnc3nc(OCc4ccc(Oc5ccc(Cl)c(C(F)(F)F)c5)cc4)ccn23)cn1
inhibition [7]: 28% | half-life at 0.1 µM (in vitro [9]): 180 min | inhibition (Rattus norvegicus [10]): 13%

Fc1cc(COc2ccn3c(-c4cncnc4)cnc3n2)cc(F)c1Oc1ccc(Cl)c(C(F)(F)F)c1
half-life at 0.1 µM (in vitro [6]): 196 min | inhibition [7]: 8% | half-life at 0.1 µM (in vitro [9]): 212 min

Fc1cc(COc2ccn3c(-c4cncnc4)cnc3n2)ccc1Oc1ccc(Cl)c(C(F)(F)F)c1
inhibition (Rattus norvegicus [1]): Active | AUC(0-inf) at 48 h (in vivo [2]): 78100 ng·h/mL | inhibition in vivo at 25 mg/kg (Rattus norvegicus [3]): 75% | half-life at 48 h (in vivo [5]): 800 min | half-life at 0.1 µM (in vitro [6]): 169 min | inhibition [7]: 13% | Cmax at 48 h (in vivo [8]): 2600 ng/mL | half-life at 0.1 µM (in vitro [9]): 331 min | inhibition (Rattus norvegicus [10]): 11%
